Test results as given in ChEMBL document CHEMBL1201862, “PubChem BioAssay data set” (2004).
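Method: 48-hour compound exposure of cells in 96-well plates, five concentrations, linear interpolation of endpoints. Abbreviation: GI50, concentration required for 50% inhibition of growth.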 Activity calls are given as the source filed them. Cut-off read from the data, not from the text of the source: active = GI50 up to about 1.1 µM and inactive = higher.

Legend:
Test in all cases: NCI tumour cell line growth inhibition, 48 h
SK-MEL-28 = system: SK-MEL-28
SF-295 = system: SF-295
UACC-62 = system: UACC-62
OVCAR-3 = system: OVCAR-3
U-251 = system: U-251
NCI-H460 = system: NCI-H460
UACC-257 = system: UACC-257
OVCAR-4 = system: OVCAR-4
HOP-92 = system: HOP-92
MOLT-4 = system: MOLT-4
RXF 393 = system: RXF 393
LOX IMVI = system: LOX IMVI
SNB-19 = system: SNB-19
HCT-15 = system: HCT-15
HCT-116 = system: HCT-116
RPMI-8226 = system: RPMI-8226

Row | SMILES | GI50 (SK-MEL-28) | GI50 (SF-295) | GI50 (UACC-62) | GI50 (OVCAR-3) | GI50 (U-251) | GI50 (NCI-H460) | GI50 (UACC-257) | GI50 (OVCAR-4) | GI50 (HOP-92) | GI50 (MOLT-4) | GI50 (RXF 393) | GI50 (LOX IMVI) | GI50 (SNB-19) | GI50 (HCT-15) [µM] | GI50 (HCT-116) | GI50 (RPMI-8226)
1 | O=C(/C=C/c1ccccc1)NC1C=Nc2ccc(Cl)cc2NC1=O (configuration not stated) | 37.9 µM (inactive) | 29 µM (inactive) | 26.2 µM (inactive) | 19.5 µM (inactive) | 18.6 µM (inactive) | 20.9 µM (inactive) | 26.4 µM (inactive) | 20.5 µM (inactive) | 32.2 µM (inactive) | 4.54 µM (inactive) | 16.2 µM (inactive) | 18.8 µM (inactive) | 29.1 µM (inactive) | 22.1 | 22.8 µM (inactive) | 
2 | N#Cc1c2c(c(N=P(c3ccccc3)(c3ccccc3)c3ccccc3)n3c1nc1ccccc13)CCCC2 | 43.7 µM (inactive) | 12.8 µM (inactive) | 12.1 µM (inactive) | 15.3 µM (inactive) | 14.4 µM (inactive) | 13.3 µM (inactive) | 15.5 µM (inactive) | 23.4 µM (inactive) |  | 19.6 µM (inactive) | 46.2 µM (inactive) | 16.7 µM (inactive) | 11.9 µM (inactive) | 20.7 | 17.6 µM (inactive) | 14.8 µM (inactive)
3 | CC1=N/C(=C\c2ccc([N+](=O)[O-])cc2)C(=O)O1 | > 100 µM (inactive) | > 100 µM (inactive) | > 100 µM (inactive) | > 100 µM (inactive) | > 100 µM (inactive) | > 100 µM (inactive) | > 100 µM (inactive) | > 100 µM (inactive) | > 100 µM (inactive) | > 100 µM (inactive) | > 100 µM (inactive) |  | > 100 µM (inactive) | > 100 | > 100 µM (inactive) | > 100 µM (inactive)
4 | CN(C)CC/C(=N\Nc1ccc([N+](=O)[O-])cc1)c1ccccc1 | 12.7 µM (inactive) | 11.5 µM (inactive) | 12.9 µM (inactive) | 16.3 µM (inactive) | 12.4 µM (inactive) | 9.48 µM (inactive) | 16.8 µM (inactive) | 18.3 µM (inactive) |  | 7.43 µM (inactive) | 4.5 µM (inactive) | 5.25 µM (inactive) | 15 µM (inactive) | 13.6 | 11.7 µM (inactive) | 11 µM (inactive)
5 | O=C(COC(=O)c1cccc2c(=O)c3ccccc3[nH]c12)Nc1ccc(C(=O)O)cc1 | > 100 µM (inactive) | > 100 µM (inactive) | 71 µM (inactive) | 50 µM (inactive) | > 100 µM (inactive) | > 100 µM (inactive) | > 100 µM (inactive) | > 100 µM (inactive) | > 100 µM (inactive) | 37.8 µM (inactive) | 46.8 µM (inactive) | > 10 µM (inactive) | > 100 µM (inactive) |  | 84.7 µM (inactive) | 
6 | On1c(-c2ccccc2)c(-c2c(-c3ccccc3)n(O)c3ccccc23)c2ccccc21 | 61.9 µM (inactive) | 22.1 µM (inactive) | 55.3 µM (inactive) | 38 µM (inactive) | 35.5 µM (inactive) | 23.4 µM (inactive) | 26.5 µM (inactive) | 52.1 µM (inactive) |  | 37.7 µM (inactive) | 20.9 µM (inactive) | 26.2 µM (inactive) | 67.5 µM (inactive) | 41 | 48.5 µM (inactive) | 
7 | Cc1c(C(=O)C/C(=N/NC(=O)c2ccccc2)C(=O)Nc2ccc(Cl)cc2)[n+]([O-])c2ccccc2[n+]1[O-] | > 100 µM (inactive) | 63.8 µM (inactive) |  | 41.6 µM (inactive) | > 100 µM (inactive) | 49.1 µM (inactive) | 69.8 µM (inactive) | > 100 µM (inactive) |  | 47 µM (inactive) | 85.1 µM (inactive) | 89.1 µM (inactive) | 88.3 µM (inactive) | 68.5 | > 100 µM (inactive) | 80.4 µM (inactive)
8 | CCOC(=O)NC(=O)c1cn(CCN2CCN(C(=O)CCCCCCCCCCC(=O)N3CCN(CCn4cc(C(=O)NC(=O)OCC)c(=O)[nH]c4=O)CC3)CC2)c(=O)[nH]c1=O | > 100 µM (inactive) | 36.8 µM (inactive) |  | > 100 µM (inactive) | > 100 µM (inactive) |  | > 100 µM (inactive) | > 100 µM (inactive) | > 100 µM (inactive) | > 100 µM (inactive) |  | 29.3 µM (inactive) | > 100 µM (inactive) |  | > 100 µM (inactive) | > 100 µM (inactive)
9 | CCCCCC/C=C/CCCCCCCc1cccc(O)c1C(=O)O | 83 µM (inactive) | > 100 µM (inactive) | 36.4 µM (inactive) | 42.3 µM (inactive) | 27.3 µM (inactive) | 9.75 µM (inactive) | 49.4 µM (inactive) | > 100 µM (inactive) |  | 48.5 µM (inactive) |  | 70.6 µM (inactive) | 34.7 µM (inactive) | 38.4 | > 100 µM (inactive) | 54.2 µM (inactive)
10 | CC(C)(C)CC(C)(C)c1cc2c(O)c(c1)Cc1cc(C(C)(C)CC(C)(C)C)cc(c1O)Cc1cc(C(C)(C)CC(C)(C)C)cc(c1O)Cc1cc(C(C)(C)CC(C)(C)C)cc(c1O)Cc1cc(C(C)(C)CC(C)(C)C)cc(c1O)Cc1cc(C(C)(C)CC(C)(C)C)cc(c1O)C2 | > 100 µM (inactive) | > 100 µM (inactive) | > 100 µM (inactive) | > 100 µM (inactive) | > 100 µM (inactive) | > 100 µM (inactive) | > 100 µM (inactive) | > 100 µM (inactive) | > 100 µM (inactive) | > 100 µM (inactive) | > 100 µM (inactive) |  | > 100 µM (inactive) | > 100 | > 100 µM (inactive) | > 100 µM (inactive)
11 | O=c1cc2n(c(=O)[nH]1)C1OC(C(O)C1O)[C@@H]2CCO (some centres not stated) | > 100 µM (inactive) | > 100 µM (inactive) | > 100 µM (inactive) |  | > 100 µM (inactive) | > 100 µM (inactive) | > 100 µM (inactive) | > 100 µM (inactive) | > 100 µM (inactive) | > 100 µM (inactive) | > 100 µM (inactive) | > 100 µM (inactive) | > 100 µM (inactive) |  |  | 
12 | O[C@]12c3ccccc3C1CCCCC2N1CCOCC1 (some centres not stated) | > 100 µM (inactive) | > 100 µM (inactive) | > 100 µM (inactive) |  | > 100 µM (inactive) | > 100 µM (inactive) | > 100 µM (inactive) | > 100 µM (inactive) |  | > 10 µM (inactive) | > 100 µM (inactive) | > 100 µM (inactive) | > 100 µM (inactive) | > 100 | > 100 µM (inactive) | > 100 µM (inactive)
13 | CC(O)C1OC(n2ccc(=O)[nH]c2=O)CC1n1cncn1 (configuration not stated) | > 100 µM (inactive) | > 100 µM (inactive) | > 100 µM (inactive) | > 100 µM (inactive) | > 100 µM (inactive) | > 100 µM (inactive) | > 100 µM (inactive) | > 100 µM (inactive) |  | > 100 µM (inactive) | > 100 µM (inactive) | > 100 µM (inactive) | > 100 µM (inactive) | > 100 | > 100 µM (inactive) | > 100 µM (inactive)
14 | C[C@]12CC[C@H](O)CC1=CC[C@@H]1C2CC[C@]2(C)Nc3c(cnn3-c3ccccc3)CC12 (some centres not stated) | 2.86 µM (inactive) | 0.388 µM (active) | 4.14 µM (inactive) | 5.9 µM (inactive) | 2.36 µM (inactive) | 2.72 µM (inactive) | 3.78 µM (inactive) | 7.23 µM (inactive) |  | 1.5 µM (inactive) | 0.441 µM (active) |  |  | 2.23 | 3.01 µM (inactive) | 0.361 µM (active)
